# Data taken from patent publication US20200325178A1, “PEPTIDE NUCLEIC ACID MOLECULES FOR TREATMENT OF GRAM POSITIVE BACTERIAL INFECTION” (priority 2017, published 2020).
# Tests used:
# [1] = tested on: S. aureus (ATCC BAA-1556); assay: Murine thigh infection model; format: in vivo; conditions: for Mean Log 10 CFU/Thigh / Mean Log 10 Change vs. 1 hr / Mean Log 10 Change vs. 24 hr (vehicle): neutropenic CD-1 mice, 10 mg/kg, 0.2 ml IV, 24 hrs
# Description: Female 5-6 week old CD-1 (18-22 gm) were used in this study. Mice were quarantined for 48 hours before use and housed in groups of 5 with free access to food and water during the study.
# The animals were made neutropenic by administration of cyclophosphamide on Days −4 and −1. On Days −4 150 mg/kg of cyclohsphamide administered by intraperitoneal route and 100 mg/kg was administered on Days −1. Days listed are referenced from the date of infection (study day-Day 0).
# On Day 0, animals were inoculated intramuscularly (0.1 ml/thigh) with ˜1×10^5 CFU/mouse of S. aureus (ATCC BAA-1556) into right thigh. […] Group-3 of mice were administered with vancomycin at 25 mg/kg via subcutaneous route. Group-4 of mice administered with buffer and group-5 used as the inoculation control.
# Mice were euthanized by CO2 inhalation and thighs were removed, and placed in 2 ml of sterile PBS, homogenized, serially diluted and plated to determine the CFU counts. Plates were incubated 18-24 hours and CFUs were counted.
# Colony were counted and the number of colonies is converted to CFU/thigh by multiplying the number of colonies by the volume of the thigh homogenate spotted and the dilution at which the colonies were counted (5-50 colonies/spot). All count data were transformed into logo CFU/thigh for calculation of means and standard deviations.
# S. aureus MSSA strains = assay: Bioscreen-C dose response growth curve of MSSA over 24 hours; format: cell-based, Staphylococcus aureus; conditions: HCl salts, doses from 100 μg downwards, 10 mM sodium bicarbonate buffer pH-7.4, OD 420-580 nm
# Description: Bioscreen-C instrument was used to detect the MIC and MBC of PNA-CPP derivatives against S. aureus MSSA strains. Different concentrations of PNA-CPP derivatives were prepared in 10 mM of sodium bicarbonate buffer pH-7.4 and added to ˜5.0 Log 10 CFUs in a Honey comb Bioscreen-C plate.
# Compound I-V were assayed against MSSA. FIG. 12-16 show a dose response growth curve of MSSA in presence of increasing concentrations of Compound I-HCl (FIG. 12), Compound II-HCl (FIG. 13), Compound III-HCl (FIG. 14), Compound IV-HCl (FIG. 15), and Compound V-HCl (FIG. 16), determined in a Bioscreen-C spectrophotometer.
# [2] = tested on: MRSA clinical isolates and ATCC strains; assay: MIC and MBC against MRSA clinical isolates and ATCC strains; format: cell-based, Staphylococcus aureus; parameters: unit not given here
# Description: (§1) Bioscreen-C instrument was used to detect the MIC and MBC of PNA-CPP derivatives against S. aureus MRSA strains. Different concentration of PNA-CPP derivatives were prepared in 10 mM of sodium bicarbonate buffer pH-7.4 and added to ˜5.0 Log 10 CFUs in a Honey comb Bioscreen-C plate.
# After the growth curve assays, the number of colony forming units (CFU) were counted to determine the MIC and MBC of each PNA-CPP derivative against MRSA.
# Minimum inhibitory concentration (MIC) analyses were performed as described in Clinical and Laboratory Standards Institute, Methods for Dilution Antimicrobial Susceptibility Tests for Bacteria that Grow Aerobically, 7th ed.; Approved Standard M7-A7; CLSI: Wayne, Pa., USA, 2006; volume 26, No. 2. […] MIC was determined as the lowest concentration of agent that inhibits bacterial growth detected at A420-580 nm.
# S. aureus MRSA strains = assay: Bioscreen-C dose response growth curve of MRSA over 24 hours; format: cell-based, Staphylococcus aureus; conditions: HCl salts, doses from 100 μg downwards, 10 mM sodium bicarbonate buffer pH-7.4, OD 420-580 nm
# Description: as §1
# Compound I-V were assayed against MRSA. FIG. 6-10 show a dose response growth curve of MRSA in presence of increasing concentrations of Compound I-HCl (FIG. 6), Compound II-HCl (FIG. 7), Compound III-HCl (FIG. 8), Compound IV-HCl (FIG. 9), and Compound V-HCl (FIG. 10), determined in a Bioscreen-C spectrophotometer.
# MSSA = assay: In vitro assay of emergence of resistance, MSSA, 8 days; format: cell-based, S. aureus; conditions: 6.25 μg (twice MBC) in one ml Mueller Hinton broth, 37° C., through Day 8
# Description: (§2) To determine the development of resistance in MRSA and MSSA strains against Compound I-HCl and Compound IV-HCl, an in vitro assay was performed. Twice the amount of MBC of Compound I-HCl (6.25 μg) and Compound IV-HCl (6.25 μg) were mixed with ˜5.0 log 10 CFUs in one ml of Mueller Hinton broth and incubated for 8 days at 37° C. Eight tubes of culture were used for each drug and bacterial strains. At 24 hours of interval, culture tubes were centrifuged and spent media were replaced with fresh media in presence of Compound I-HCl and Compound IV-HCl and further incubated to observe the growth of S. aureus strains. At 24 hours interval, one set of culture tube exposed to drugs were selected and a fraction of the culture used to plate on agar plates to observe the reduction of CFU counts as compared to untreated control. The rest of the culture samples were allowed to grow without any drug for additional 24 hours to observe the growth of S. aureus strains. One set of culture tubes without drug was used as the positive control.
# The assays above were also performed using MSSA strains and Compounds I and IV.
# MRSA = assay: In vitro assay of emergence of resistance, MRSA, 8 days; format: cell-based, S. aureus; conditions: 6.25 μg (twice MBC) in one ml Mueller Hinton broth, 37° C., through Day 8
# Description: as §2
substance,measurement,setting,value
"Compound I: PNA-CPP conjugate: PNA cgt cat acg cgg tcc (SEQ ID NO: 51), AEEA linker, CPP BXRXRRXRRXRRXR; FIG. 1 (CGTCATACGCGGTCC; all peptide nucleic acid (PNA); cell-penetrating peptide attached via AEEA linker, further chemistry not fully specified)",reduction in CFU counts compared to Vancomycin positive control treatment,"[1]; administered at 1 and 13 hours or at 1, 9, and 17 hours",comparable or improved reduction in CFU counts
same,Mean Log 10 CFU/Thigh,[1]; +1 & 13 hrs,4.46 Log 10 CFU/Thigh
same,Mean Log 10 Change vs. 1 hr,[1]; +1 & 13 hrs,−1.16 Log 10
same,Mean Log 10 Change vs. 24 hr (vehicle),[1]; +1 & 13 hrs,−4.07 Log 10
same,Mean Log 10 CFU/Thigh,"[1]; +1, +9, & +17 hrs",3.46 Log 10 CFU/Thigh
same,Mean Log 10 Change vs. 1 hr,"[1]; +1, +9, & +17 hrs",−2.16 Log 10
same,Mean Log 10 Change vs. 24 hr (vehicle),"[1]; +1, +9, & +17 hrs",−5.07 Log 10
same,lowest dose at which no MSSA growth was observed (growth curve),S. aureus MSSA strains,3.13 µg
same,MBC,[2]; isolate MRSA#1,1.56
same,MIC,[2]; isolate MRSA#1,0.78
same,MBC,[2]; isolate MRSA#3,3.25
same,MIC,[2]; isolate MRSA#3,1.56
same,MBC,[2]; isolate MRSA#6,1.56/1.56
same,MIC,[2]; isolate MRSA#6,1.56/1.56
same,MBC,[2]; isolate MRSA#15,3.25/3.25
same,MIC,[2]; isolate MRSA#15,3.25/3.25
same,MBC,[2]; isolate MRSA#28,3.25/3.25
same,MIC,[2]; isolate MRSA#28,3.25/3.25
same,MBC,[2]; isolate MRSA#31,3.25/3.25
same,MIC,[2]; isolate MRSA#31,3.25/3.25
same,MBC,[2]; isolate MRSA#37,3.25
same,MIC,[2]; isolate MRSA#37,1.56
same,MBC,[2]; isolate MRSA#39,3.25/3.25
same,MIC,[2]; isolate MRSA#39,3.25/3.25
same,MBC,[2]; isolate MRSA#42,1.56/1.56
same,MIC,[2]; isolate MRSA#42,1.56/1.56
same,MBC,[2]; isolate MRSA#43,3.25
same,MIC,[2]; isolate MRSA#43,1.56
same,MBC,[2]; strain USA 300,3.25
same,MIC,[2]; strain USA 300,1.56
same,lowest dose at which no MRSA growth was observed (growth curve),S. aureus MRSA strains,3.13 µg
same,MSSA CFU counts and emergence of resistant strains,MSSA,reduced MSSA CFUs without emergence of resistant strains
same,MRSA CFU counts and emergence of resistant strains,MRSA,reduced MRSA CFUs without emergence of resistant strains
